Experimental data from patent publication US20240075002A1, “CREATINE COMPOSITION AND METHODS OF USING SAME” (NanoChem Solutions, Inc, priority 2022, published 2024).

Experiment: pH of the spray dried powder
Type: physicochemical
Method: In one exemplary embodiment, an aqueous solution of creatine sodium sulfate can be produced by dissolving about 72.96 grams of sodium hydrogen sulfate in about 811.86 grams of deionized water. The solution can be heated to about 145° F. and is maintained throughout the reaction. When the temperature of the sodium hydrogen sulfate solution reaches about 145° F., about 90.63 grams of creatine monohydrate can be added to the solution whereby the heat is maintained at about 145° F. and the mixture mixes with standard agitation for approximately 1 hour. After the hour, the solution is immediately piped to the spray dryer whereby it is spray dried into a powder with a total water of 3-7% by weight and with a water activity of less than 0.4. The pH of the spray dried powder is approximately 1.7. The mesh size of the spray-dried, stable, soluble sodium hydrogen sulfate powder is approximately 40-200 mesh, but can be adjusted depending on the requirements of the customer or desired end application.
In another exemplary embodiment, an aqueous solution of creatine potassium sulfate can be produced by dissolving about 109.53 grams of potassium hydrogen sulfate in about 806.68 grams of deionized water. The solution is can be heated to about 145° F. and is maintained throughout the reaction. […]

SMILES	pH of the spray dried powder
CN(CC(=O)O)C(=N)N.O=S(=O)([O-])[O-].[K+].[K+] [creatine potassium sulfate]	approximately 1.7
CN(CC(=O)O)C(=N)N.O=S(=O)([O-])[O-].[Na+].[Na+] [creatine sodium sulfate]	approximately 1.7
